# Assay results from US20250144067A1, “PERSONALIZED STARVATION THERAPY FOR CANCER” (Faeth Therapeutics, Inc., priority 2021, published 2025).
# Where a name gives a salt, the structure may show the parent alone. Read-outs that look alike come from different tables or passages of the source. Numbered stars: 1 amine (or outer) side, 2 acyl side, 3 side chain; on linkers, the order of the positions; unused ones are H or OH. Bridge positions count the residues as written; N and C are the ends. Square brackets hold non-standard residues; d marks the D form. Peptide text beside a SMILES is read from it. * marks the point of attachment. pTerphenylCO(4''-OnC5H11) = CCCCCOc1ccc(-c2ccc(-c3ccc(C(=O)*)cc3)cc2)cc1; Orn(4R-OH,5R-OH) = O=C([C@H](C[C@@H](O)[C@@H](O)N[*:3])N[*:1])[*:2]; hTyr(3S-OH,4S-OH) = N[C@H](C(=O)O)[C@H](O)[C@@H](O)c1ccc(O)cc1; Pro(3S-OH,4S-Me) = C[C@H]1CN[C@H](C(=O)O)[C@H]1O; Hyp = O=C(O)[C@@H]1C[C@@H](O)CN1
# Assays:
# [1] = test system: NCI-H292 lung cancer cells; assay: FDA drug screening, complete media vs cholesterol-free media with simvastatin (TABLE 2); format: cell-based, human
# [2] = test system: NCI-H292 lung cancer cells; assay: FDA drug screening, complete media vs cholesterol-free media without statin (TABLE 1); format: cell-based, human
# [3] = NCI-H292 cells, drug in cholesterol-free media with simvastatin 0.04 μM
# [4] = NCI-H292 cells, drug in complete media
# [5] = Complete minus Cholesterol-free, […]
# [6] = NCI-H292 cells, FDA drug library screen, cholesterol-free media without statin
# [7] = NCI-H292 cells, FDA drug library screen, complete media
# [8] = NCI-H292 cells, FDA library drug in cholesterol-free media with simvastatin 0.04 μM
# [9] = NCI-H292 cells, FDA library drug in complete media
# [10] = complete media vs cholesterol-free media + simvastatin (0.04 μM), >0 enhanced anti-cancer activity, about 0 neutral, <0 antagonist
# [11] = NCI-H292 cells, cholesterol-free media without statin, FDA drug library screen
# [12] = NCI-H292 cells, complete media, FDA drug library screen
# [13] = complete vs cholesterol-free media, >0 enhanced anti-cancer activity, about 0 neutral, <0 antagonist
# [14] = Complete minus Cholesterol-free, greater than 0 enhanced anti-cancer activity, about 0 neutral, below 0 antagonists
# [15] = NCI-H292 cells in cholesterol-free media without statin
# [16] = NCI-H292 cells in complete media
# [17] = NCI-H292 cells, FDA drug library screen, cholesterol-free media with simvastatin 0.04 μM
# [18] = Complete minus Cholesterol-free, >0 enhanced anti-cancer activity, about 0 neutral, <0 antagonist
# [19] = NCI-H292 cells, cholesterol-free media without statin
# [20] = complete vs cholesterol-free media, greater than 0 enhanced anti-cancer activity, about 0 neutral, below 0 antagonists
# [21] = NCI-H292 cells, cholesterol-free media with simvastatin 0.04 μM, cell growth value in FDA drug screen
# [22] = NCI-H292 cells, complete media, cell growth value in FDA drug screen
# [23] = complete media minus cholesterol-free media + simvastatin, >0 enhanced anti-cancer activity, about 0 neutral, <0 antagonist
# [24] = Complete minus Cholesterol-free, greater than 0 enhanced anti-cancer activity, about 0 neutral, below 0 antagonist
smiles,measurement,setting,value
O.Sc1ncnc2nc[nH]c12 [6-Mercaptopurine hydrate],Cholesterol-free media + simvastatin (0.04 μM),[1]; [3],0.9123
same,Complete Media,[1]; [4],0.7458
same,Difference,"[1]; complete media vs cholesterol-free media + simvastatin (0.04 μM), […]",−0.17
same,Difference,[2]; [5],−0.11
same,Cholesterol-free,[2]; [6],0.3886
same,Complete,[2]; [7],0.2796
Cl.NCC(O)c1ccc(O)c(O)c1 (racemic) [DL-Norepinephrine (hydrochloride)],Cholesterol-free media + simvastatin (0.04 μM),[1]; [8],0.9652
same,Complete Media,[1]; [9],0.176
same,Difference,[1]; [10],−0.79
same,Cholesterol-free,[2]; [11],1.105
same,Complete,[2]; [12],1.652
same,Difference,[2]; [13],0.55
C[C@H](Nc1ncnc2nc[nH]c12)c1cc2cccc(Cl)c2c(=O)n1-c1ccccc1 [Duvelisib],Cholesterol-free media + simvastatin (0.04 μM),[1]; [8],1.228
same,Complete Media,[1]; [9],0.8817
same,Difference,[1]; [10],−0.35
same,Difference,[2]; [14],−0.51
same,Cholesterol-free,[2]; [15],1.444
same,Complete,[2]; [16],0.9349
CC[C@@]1(O)C(=O)OCc2c1cc1n(c2=O)Cc2cc3c(CN(C)C)c(O)ccc3nc2-1 [Topotecan (Hydrochloride)],Cholesterol-free media + simvastatin (0.04 μM),[1]; [17],0.1355
same,Complete Media,[1]; [7],0.04638
same,Difference,[1]; [10],−0.09
same,Difference,[2]; [18],−0.03
same,Cholesterol-free,[2]; [11],0.05524
same,Complete,[2]; [12],0.02609
OC(Cn1cncn1)(Cn1cncn1)c1ccc(F)cc1F [Fluconazole],Cholesterol-free media + simvastatin (0.04 μM),[1]; [8],1.268
same,Complete Media,[1]; [9],0.9392
same,Difference,[1]; [10],−0.33
same,Cholesterol-free,[2]; [19],1.23
same,Complete,"[2]; NCI-H292 cells, complete media",0.8337
same,Difference,[2]; [20],−0.40
O=C(O)CN(CCN(CC(=O)O)CC(=O)O)CC(=O)O,Cholesterol-free media + simvastatin (0.04 μM),[1]; [21],0.8557
same,Complete Media,[1]; [22],0.9311
same,Difference,[1]; [23],0.08
same,Difference,[2]; [18],−0.27
same,Cholesterol-free,[2]; [19],1.665
same,Complete,"[2]; NCI-H292 cells, complete media",1.397
CC(=O)OCC[N+](C)(C)C.[Cl-] [Acetylcholine (chloride)],Cholesterol-free media + simvastatin (0.04 μM),[1]; [3],0.9864
same,Complete Media,[1]; [4],0.8029
same,Difference,[1]; [10],−0.18
same,Cholesterol-free,[2]; [11],1.32
same,Complete,[2]; [12],1.724
same,Difference,[2]; [13],0.40
CC(=O)OCC(=O)[C@@]1(O)CC[C@H]2[C@@H]3CCC4=CC(=O)CC[C@]4(C)[C@H]3C(=O)C[C@@]21C [Cortisone acetate],Cholesterol-free media + simvastatin (0.04 μM),[1]; [21],1.003
same,Complete Media,[1]; [22],1.101
same,Difference,[1]; [23],0.10
same,Difference,[2]; [14],−1.35
same,Cholesterol-free,[2]; [15],2.332
same,Complete,[2]; [16],0.9837
O=C1NC(=O)C(c2ccccc2)(c2ccccc2)N1 [Phenytoin],Cholesterol-free media + simvastatin (0.04 μM),[1]; [17],1.316
same,Complete Media,[1]; [7],1.23
same,Difference,[1]; [10],−0.09
same,Cholesterol-free,[2]; [11],0.8044
same,Complete,[2]; [12],0.8965
same,Difference,[2]; [13],0.09
CC(C)=CCC/C(C)=C/CC/C(C)=C/C=C/C(C)=C/C(=O)O [Peretinoin],Cholesterol-free media + simvastatin (0.04 μM),[1]; [8],1.273
same,Complete Media,[1]; [9],0.971
same,Difference,[1]; [10],−0.30
same,Difference,[2]; [18],−0.19
same,Cholesterol-free,[2]; [19],1.271
same,Complete,"[2]; NCI-H292 cells, complete media",1.084
COc1cccc(N2CCN(C3=Nc4c(F)cccc4[C@H](CC(=O)O)N3c3cc(C(F)(F)F)ccc3OC)CC2)c1 [Letermovir],Cholesterol-free media + simvastatin (0.04 μM),"[1]; NCI-H292 cells, cholesterol-free media with simvastatin 0.04 μM, FDA drug library screen (TABLE 2)",1.527
same,Complete Media,"[1]; NCI-H292 cells, complete media, FDA drug library screen (TABLE 2)",1.457
same,Difference,"[1]; complete media minus cholesterol-free media + simvastatin (0.04 μM), >0 enhanced anti-cancer activity, about 0 neutral, <0 antagonist",−0.07
same,Cholesterol-free,[2]; [19],1.5
same,Complete,"[2]; NCI-H292 cells, complete media",1.08
same,Difference,[2]; [20],−0.42
O=C(O)[C@H](O)[C@@H](O)[C@H](O)[C@H](O)CO [D-Gluconic acid],Cholesterol-free media + simvastatin (0.04 μM),[1],1.103
same,Complete Media,[1],0.9995
same,Difference,[1],−0.10
same,Cholesterol-free,[2],1.845
same,Complete,[2],1.115
same,Difference,[2],−0.73
CCN1CCN(C(=O)N[C@@H](C(=O)N[C@@H]2C(=O)N3C(C(=O)O)=C(CSc4nnnn4C)CS[C@H]23)c2ccc(O)cc2)C(=O)C1=O [Cefoperazone (sodium salt)],Cholesterol-free media + simvastatin (0.04 μM),[1]; [3],1.213
same,Complete Media,[1]; [4],0.9749
same,Difference,[1]; [10],−0.24
same,Cholesterol-free,[2]; [11],1.002
same,Difference,[2]; [13],0.17
"CCCCCOc1ccc(-c2ccc(-c3ccc(C(=O)N[C@H]4C[C@@H](O)[C@@H](O)NC(=O)[C@@H]5[C@@H](O)[C@@H](C)CN5C(=O)[C@H]([C@@H](C)O)NC(=O)[C@H]([C@H](O)[C@@H](O)c5ccc(O)cc5)NC(=O)[C@@H]5C[C@@H](O)CN5C(=O)[C@H]([C@@H](C)O)NC4=O)cc3)cc2)cc1 [Anidulafungin] ({pTerphenylCO(4''-OnC5H11)}-[Orn(4R-OH,5R-OH)]T[Hyp][hTyr(3S-OH,4S-OH)]T[Pro(3S-OH,4S-Me)]; lactam 1-C)",Cholesterol-free media + simvastatin (0.04 μM),[1]; [17],1.251
same,Difference,"[1]; complete media minus cholesterol-free media + simvastatin (0.04 μM), […]",−1.03
same,Difference,[2]; [5],−0.23
same,Cholesterol-free,[2]; [19],1.481
same,Complete,"[2]; NCI-H292 cells, complete media",1.247
COC(=O)[C@H]1[C@H]2C[C@H]3c4[nH]c5ccccc5c4CCN3C[C@H]2CC[C@@H]1O [Rauwolscine (hydrochloride)],Cholesterol-free media + simvastatin (0.04 μM),[1]; [21],0.7455
same,Complete Media,[1]; [22],0.837
same,Difference,[1]; [23],0.09
same,Cholesterol-free,[2]; [19],1.377
same,Complete,"[2]; NCI-H292 cells, complete media",0.9629
same,Difference,[2]; [20],−0.41
CC[C@@H](C(N)=O)N1CCCC1=O [Levetiracetam],Cholesterol-free media + simvastatin (0.04 μM),[1]; [17],1.002
same,Complete Media,[1]; [7],0.917
same,Difference,[1]; [10],−0.09
same,Difference,[2]; [18],−0.22
same,Cholesterol-free,[2]; [19],1.098
same,Complete,"[2]; NCI-H292 cells, complete media",0.8825
O=C(Nc1cnn2ccc(N3CCC[C@@H]3c3cc(F)ccc3F)nc12)N1CC[C@H](O)C1 [Larotrectinib],Cholesterol-free media + simvastatin (0.04 μM),[1]; [21],1.092
same,Complete Media,[1]; [22],1.143
same,Difference,[1]; [23],0.05
same,Difference,[2]; [24],−0.08
same,Cholesterol-free,[2]; [6],1.012
same,Complete,[2]; [7],0.9305
NC(=O)NS(=O)(=O)c1ccc(N)cc1 [Sulfacarbamide],Cholesterol-free media + simvastatin (0.04 μM),[1]; [17],0.9379
same,Complete Media,[1]; [7],1.144
same,Difference,[1]; [23],0.21
same,Difference,[2]; [18],0.04
same,Cholesterol-free,[2]; [11],0.9085
same,Complete,[2]; [12],0.9465
Nc1ccc(S(=O)(=O)Nc2nccs2)cc1 [Sulfathiazole (sodium)],Cholesterol-free media + simvastatin (0.04 μM),[1]; [8],1.852
same,Complete Media,[1]; [9],1.04
same,Difference,[1]; [10],−0.81
same,Difference,[2]; [18],−0.22
same,Cholesterol-free,[2]; [19],1.264
same,Complete,"[2]; NCI-H292 cells, complete media",1.047
CCCCN1CCCC[C@H]1C(=O)Nc1c(C)cccc1C [Levobupivacaine (hydrochloride)],Cholesterol-free media + simvastatin (0.04 μM),[1]; [21],0.871
same,Complete Media,[1]; [22],0.9154
same,Difference,[1]; [23],0.04
same,Cholesterol-free,[2]; [19],1.298
same,Complete,"[2]; NCI-H292 cells, complete media",0.9683
same,Difference,[2]; [20],−0.33
C[C@H]1CNCCCN1S(=O)(=O)c1cccc2cncc(F)c12 [Ripasudil],Cholesterol-free media + simvastatin (0.04 μM),[1]; [3],1.388
same,Complete Media,[1]; [4],1.177
same,Difference,[1]; [10],−0.21
same,Cholesterol-free,[2]; [11],0.6571
same,Complete,[2]; [12],0.9065
same,Difference,[2]; [13],0.25
CS(=O)(=O)c1ccc([C@@H](O)[C@@H](CF)NC(=O)C(Cl)Cl)cc1 [Florfenicol],Cholesterol-free media + simvastatin (0.04 μM),[1]; [17],1.137
same,Complete Media,[1]; [7],0.997
same,Difference,[1]; [10],−0.14
same,Difference,[2]; [24],−0.13
same,Cholesterol-free,[2]; [6],0.8542
same,Complete,[2]; [7],0.7262
